Measurements published in patent US8119635B2, “Diazabicyclic central nervous system active agents” (Abbott Laboratories, priority 2000, dated 2012).
Where a name gives a salt, the structure may show the parent alone. Read-outs that look alike come from different tables or passages of the source.

How the values were obtained:
Male Sprague-Dawley rats = experiment: Formalin test (analgesia); format: in vivo; details: Rattus norvegicus, ip, intraperitoneally 5 minutes before injection of 50 μL 5% formalin into rear paw, nocifensive behaviors, read-out: (MED) minimally effective dose, formalin test
Experimental: Another in vivo protocol utilized to determine the effectiveness of nicotinic acetylcholine receptor ligands as analgesic agents was the formalin test.
Male Sprague-Dawley rats (Charles River, Portage, Mich.) weighing 200 to 400 grams were used for all experiments. After a 20 minute period of acclimation to individual cages, 50 μL of a 5% formalin solution was injected subcutaneous into the dorsal aspect of one of the rear paws and the rats were then returned to the clear observation cages suspended above mirror panels. […] Phase 1 of the formalin test was defined as the period of time immediately after injection of formalin until 10 minutes after the formalin injection (i.e., 0-10 minutes after formalin). Phase 2 was defined as the 20 minute period from 30 to 50 minutes after formalin injection. The investigator recorded nocifensive behaviors in the injected paw of four animals during the session by observing each animal for one 15 second observation period during each 1 minute interval. Nocifensive behaviors recorded included flinching, licking or biting the injected paw. In dose-response studies, the test compound (or saline) was administered intraperitoneally 5 minutes before injection of formalin.

mice = experiment: Mouse hot plate paradigm (analgesia); format: in vivo; details: ip, 0.5 h, intraperitoneal, dosed 30 minutes prior to testing, hot plate 55° C., latency until the tenth jump, read-out: (MED) minimally effective dose, mouse hot plate
Experimental: An in vivo protocol was utilized to determine the effectiveness of nicotinic acetylcholine receptor ligands as analgesic agents in the mouse hot plate paradigm.
Separate groups of mice, (n=8/group) were utilized for each dose group. All drugs were administered by the intraperitoneal route of administration. Test drugs were dissolved in water to make a 6.2 mM stock solution. Animals were dosed with this solution (10 mL/kg body weight) for a 62 micromol/kg dose. Lower doses were administered similarly, following serial dilution of the stock solution in half-log increments. Animals were dosed 30 minutes prior to testing in the hot plate. The hot-plate utilized was an automated analgesia monitor (Model #AHP16AN, Omnitech Electronics, Inc. of Columbus, Ohio). The temperature of the hot plate was maintained at 55° C. and a cut-off time of 180 seconds was utilized. Latency until the tenth jump was recorded as the dependent measure. An increase in the tenth jump latency relative to the control was considered an effect.

[1] = biological target: T1, neuronal nicotinic acetylcholine receptors (Rattus norvegicus, UniProt P09483+P12390); experiment: Binding of [3H]-cytisine to neuronal nicotinic acetylcholine receptors, crude synaptic membranes from whole rat brain
T1 construct: crude synaptic membrane preparations from whole rat brain; from tissue; host or cells: whole rat brain, crude synaptic membranes
T1 sequence (P09483 31-630): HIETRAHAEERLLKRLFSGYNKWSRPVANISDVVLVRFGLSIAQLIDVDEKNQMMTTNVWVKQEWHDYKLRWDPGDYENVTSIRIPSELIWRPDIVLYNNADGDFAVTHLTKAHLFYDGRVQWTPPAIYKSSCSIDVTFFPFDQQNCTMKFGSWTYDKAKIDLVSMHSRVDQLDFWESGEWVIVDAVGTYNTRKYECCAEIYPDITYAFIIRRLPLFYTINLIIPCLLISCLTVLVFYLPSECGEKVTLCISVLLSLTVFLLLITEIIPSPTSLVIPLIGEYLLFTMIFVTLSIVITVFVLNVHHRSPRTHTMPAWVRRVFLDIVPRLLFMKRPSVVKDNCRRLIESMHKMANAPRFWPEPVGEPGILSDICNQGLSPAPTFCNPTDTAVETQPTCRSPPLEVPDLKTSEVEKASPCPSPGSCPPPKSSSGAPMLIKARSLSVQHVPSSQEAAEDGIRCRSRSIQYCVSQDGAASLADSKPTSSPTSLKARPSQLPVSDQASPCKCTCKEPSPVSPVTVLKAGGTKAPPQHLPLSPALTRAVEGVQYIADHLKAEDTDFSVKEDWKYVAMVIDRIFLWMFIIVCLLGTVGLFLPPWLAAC
T1 sequence (P12390 25-500): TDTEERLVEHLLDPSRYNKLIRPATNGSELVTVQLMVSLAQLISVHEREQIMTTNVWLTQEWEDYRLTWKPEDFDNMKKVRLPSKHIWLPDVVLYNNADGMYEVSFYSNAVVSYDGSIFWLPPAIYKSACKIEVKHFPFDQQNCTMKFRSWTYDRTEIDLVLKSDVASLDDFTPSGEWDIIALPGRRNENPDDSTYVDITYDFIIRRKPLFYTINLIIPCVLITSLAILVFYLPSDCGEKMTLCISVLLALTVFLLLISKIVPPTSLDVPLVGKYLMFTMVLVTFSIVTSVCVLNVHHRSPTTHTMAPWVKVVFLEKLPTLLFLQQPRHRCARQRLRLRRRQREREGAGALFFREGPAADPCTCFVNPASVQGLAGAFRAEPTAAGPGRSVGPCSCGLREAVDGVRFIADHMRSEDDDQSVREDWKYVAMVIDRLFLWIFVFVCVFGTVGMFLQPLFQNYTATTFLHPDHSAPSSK
Experimental: The In Vitro protocols for determination of nicotinic acetylcholine channel receptor binding potencies of ligands were determined as follows.
Washed membranes were stored at −80° C. prior to use. Frozen aliquots were slowly thawed and resuspended in 20 volumes of buffer (containing: 120 mM NaCl, 5 mM KCl, 2 mM MgCl2, 2 mM CaCl2 and 50 mM Tris-Cl, pH 7.4 @[…]). After centrifuging at 20,000×g for 15 minutes, the pellets were resuspended in 30 volumes of buffer.
The test compounds were dissolved in water to make 10 mM stock solutions. Each solution was then diluted (1:100) with buffer (as above) and further taken through seven serial log dilutions to produce test solutions from 10^−5 to 10^−11 M.
Samples were incubated for 60 minutes at 4° C., then rapidly filtered through Whatman GF/B filters presoaked in 0.5% polyethyleneimine using 3×4 mL of ice-cold buffer. The filters are counted in 4 mL of Ecolume® (ICN). Nonspecific binding was determined in the presence of 10 μM (−)-nicotine and values were expressed as a percentage of total binding. IC50 values were determined with the RS-1 (BBN) nonlinear least squares curve-fitting program and IC50 values were converted to Ki values using the Cheng and Prusoff correction (Ki=IC50/(1+[ligand]/Kd of ligand).

[2] = [3H]-CYT 1.25 nM, whole rat brain membranes, 60 minutes at 4° C., IC50 converted to Ki by Cheng and Prusoff correction, read-out: Average Ki

Row | SMILES | minimal effective dose (Male Sprague-Dawley rats) [µmol/kg] | minimal effective dose (mice) [µmol/kg] | Ki [1, 2] [nM] | Ki [1] [nM]
1 | c1cncc(N2C[C@H]3CCN[C@H]3C2)c1 [Example 28, (3aR,6aR)-5-(3-pyridinyl)octahydropyrrolo[3,4-b]pyrrole dihydrochloride] | 1.9 | 6.2 | 0.34 | –
2 | Cc1cc(N2C[C@@H]3CCN[C@@H]3C2)cnc1Cl [Example 26, (3aS,6aS)-5-(6-chloro-5-methyl-3-pyridinyl)octahydropyrrolo[3,4-b]pyrrole hydrochloride] | – | 19 | – | 0.62
3 | Clc1ccc(N2C[C@H]3CCCN[C@H]3C2)cn1 (relative stereo) [Example 22, cis-6-(6-chloro-3-pyridinyl)octahydro-1H-pyrrolo[3,4-b]pyridine dihydrochloride] | 1.9 | 19 | – | 11
4 | Cc1cc(N2C[C@H]3CNC[C@H]3C2)cnc1Cl [Example 11, cis-2-(6-chloro-5-methyl-3-pyridinyl)octahydropyrrolo[3,4-c]pyrrole dihydrochloride] | – | 6.2 | – | 0.04
5 | COc1cncc(N2C[C@H]3CNC[C@H]3C2)c1 [Example 7, cis-2-(5-methoxy-3-pyridinyl)octahydropyrrolo[3,4-c]pyrrole dihydrochloride] | 6.2 | 19 | – | 0.08
6 | CCCOc1cncc(N2C[C@H]3CNC[C@H]3C2)c1 [Example 9, cis-2-(5-propoxy-3-pyridinyl)octahydropyrrolo[3,4-c]pyrrole semi(fumarate)] | – | 19 | – | 0.04
7 | c1cncc(N2C[C@@H]3CNC[C@@H]32)c1 [Example 55, (1S,5R)-6-(3-pyridinyl)-3,6-diazabicyclo[3.2.0]heptane fumarate] | > 19 | – | – | 0.72
8 | Clc1ccc(N2C[C@@H]3CNC[C@@H]32)cn1 [Example 54, (1S,5R)-6-(6-chloro-3-pyridinyl)-3,6-diazabicyclo[3.2.0]heptane fumarate] | 1.9 | – | – | 1.3
9 | Clc1ccc(N2C[C@H]3CCN[C@H]3C2)cn1 [Example 14, (3aR,6aR)-5-(6-chloro-3-pyridinyl)octahydropyrrolo[3,4-b]pyrrole dihydrochloride] | 0.62 | 1.9 | – | 1.1
10 | N#Cc1cc(N2C[C@H]3CCN[C@H]3C2)cnc1Br [Example 51, 5-((3aR,6aR)-hexahydropyrrolo[3,4-b]pyrrol-5(1H)-yl)-2-bromonicotinonitrile fumarate] | 0.62 | – | – | 0.12
11 | C=Cc1cncc(N2C[C@H]3CCN[C@H]3C2)c1 [Example 56, (3aR,6aR)-5-(5-vinyl-3-pyridinyl)octahydropyrrolo[3,4-b]pyrrole dihydrochloride] | 1.9 | – | – | 0.62
12 | C=Cc1cncc(N2C[C@@H]3CNC[C@@H]32)c1 [Example 69, (1S,5R)-6-(5-vinyl-3-pyridinyl)-3,6-diazabicyclo[3.2.0]heptane fumarate] | > 19 | – | – | 3.2
13 | Clc1ccc(N2C[C@H]3CCN[C@H]3C2)cn1 (relative stereo) [Example 13, cis-5-(6-chloro-3-pyridinyl)octahydropyrrolo[3,4-b]pyrrole hydrochloride] | 0.62 | 6.2 | – | 1.5
14 | Clc1cc(N2C[C@H]3CCN[C@H]3C2)cnc1Cl [Example 24, (3aR,6aR)-5-(5,6-dichloro-3-pyridinyl)octahydropyrrolo[3,4-b]pyrrole hydrochloride] | 6.2 | 6.2 | – | 0.16
15 | Cc1cc(N2C[C@H]3CCN[C@H]3C2)cnc1Cl [Example 27, (3aR,6aR)-5-(6-chloro-5-methyl-3-pyridinyl)octahydropyrrolo[3,4-b]pyrrole hydrochloride] | – | 1.9 | – | 0.1
16 | COc1cncc(N2C[C@H]3CCN[C@H]3C2)c1 [Example 29, (3aR,6aR)-5-(5-methoxy-3-pyridinyl)octahydropyrrolo[3,4-b]pyrrole dihydrochloride] | 6.2 | 19 | – | 0.35
17 | Cc1cc(N2C[C@H]3CNC[C@H]32)cnc1Cl [Example 87, (1R,5S)-6-(6-chloro-5-methyl-3-pyridinyl)-3,6-diazabicyclo[3.2.0]heptane 4-methylbenzenesulfonate] | 6.2 | – | – | 0.2
18 | c1cncc(N2CC[C@H]3CN[C@H]3C2)c1 (relative stereo) [Example 33, (cis)-3-(3-pyridinyl)-3,8-diazabicyclo[4.2.0]octane tris(4-methylbenzenesulfonate)] | 0.62 | 1.9 | – | 0.02
19 | Clc1ccc(N2C[C@H]3CCNC[C@H]32)cn1 [Example 47, (1S,6R)-8-(6-chloro-3-pyridinyl)-3,8-diazabicyclo[4.2.0]octane difumarate] | 1.9 | – | 0.8 | –
20 | C=Cc1cc(N2C[C@H]3CCN[C@H]3C2)cnc1Br [Example 65, (3aR,6aR)-5-(6-bromo-5-vinyl-3-pyridinyl)octahydropyrrolo[3,4-b]pyrrole dihydrochloride] | > 19 | – | – | 3.1
21 | COc1cc(N2C[C@H]3CNC[C@H]3C2)cnc1Cl [Example 10, cis-2-(6-chloro-5-methoxy-3-pyridinyl)octahydropyrrolo[3,4-c]pyrrole dihydrochloride] | 1.9 | 6.2 | – | 0.03
22 | Cc1cncc(N2C[C@H]3CCN[C@H]3C2)c1 [Example 58, (3aR,6aR)-5-(5-methyl-3-pyridinyl)octahydropyrrolo[3,4-b]pyrrole trihydrochloride] | 1.9 | – | – | 0.53
23 | Clc1ccc(N2C[C@@H]3CN[C@@H]3C2)cn1 (relative stereo) [Example 41, (cis)-3-(6-chloro-3-pyridinyl)-3,6-diazabicyclo[3.2.0]heptane fumarate] | > 1.9 | – | – | 1.9
24 | COc1cc(N2C[C@H]3CCN[C@H]3C2)cnc1Br [Example 43, (3aR,6aR)-5-(6-bromo-5-methoxy-3-pyridinyl)octahydropyrrolo[3,4-b]pyrrole] | 6.2 | – | – | 0.3
25 | N#Cc1cncc(N2C[C@@H]3CCNC[C@@H]32)c1 [Example 50, 5-[(1R,6S)-3,8-diazabicyclo[4.2.0]oct-8-yl]nicotinonitrile fumarate] | 6.2 | – | – | 0.51
26 | Clc1cc(N2C[C@H]3CNC[C@H]32)cnc1Cl [Example 85, (1R,5S)-6-(5,6-dichloro-3-pyridinyl)-3,6-diazabicyclo[3.2.0]heptane fumarate] | > 19 | – | – | 0.27
27 | N#Cc1cncc(N2C[C@@H]3CNC[C@@H]32)c1 [Example 70, 5-[(1S,5R)-3,6-diazabicyclo[3.2.0]hept-6-yl]nicotinonitrile fumarate] | > 19 | – | – | 0.86
28 | C=Cc1cc(N2C[C@@H]3CNC[C@@H]32)cnc1Br [Example 72, (1S,5R)-6-(6-bromo-5-vinyl-3-pyridinyl)-3,6-diazabicyclo[3.2.0]heptane fumarate] | > 19 | – | – | 0.6
29 | C#Cc1cncc(N2C[C@@H]3CNC[C@@H]32)c1 [Example 68, (1S,5R)-6-(5-ethynyl-3-pyridinyl)-3,6-diazabicyclo[3.2.0]heptane fumarate] | > 19 | – | – | 0.61
